Legend:
[1] = biological target: Human KLKB1 (Homo sapiens (Human), UniProt P03952); experiment: KLKB1 kallikrein activity inhibition assay (chromogenic substrate S-2302); assay type: biochemical
Procedure, shortened: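 Enzyme at a final 3 nM was assayed in 0.05 M Tris pH 7.4, 0.01 M NaCl and 0.2% PEG-8000 at room temperature, with compounds as ten-point threefold dilutions.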

[2] = biological target: Recombinant human tissue kallikrein (KLK1) (Homo sapiens (Human), UniProt P06870); experiment: KLK1 kallikrein activity inhibition assay (Pro-Phe-Arg-AMC substrate); assay type: biochemical
Procedure: The KLK1 kallikrein activity reported herein (e.g., Tables B and C) was obtained as follows. Recombinant human tissue kallikrein (KLK1) was obtained from R&D Systems. […] KLK1 enzyme is activated by incubating 0.5 mg/ml KLK1 combined with 0.1 μg/ml thermolysin in a buffer of 0.05 M Tres (pH 7.5), 0.15 M NaCl, and 0.01 M CaCl2 for one hour at 37° C. The thermolysin is then deactivated by the addition of equal parts 20 mM 1, 10 phenanthroline solution in water. The activated KLK1 solution is then added to CHES buffer (0.05 M CHES, 0.15 M NaCl, 0.01 M CaCl2, pH 10) for a final concentration of 5 nM along with the test article and incubated for 10 minutes. […] Substrate activation is read 10 minutes after substrate addition using a Synergy H1 multifunction plate reader (Biotek) programmed with a 360 nm excitation wavelength and a 480 nm emission wavelength. Inhibitor response was established by adding test compound as ten point, three-fold serial dilutions, as known in the art. The IC50 was calculated by plotting the percent (%) inhibition against compound concentration and fitting the data to a constrained four parameter sigmoidal curve, as known in the art.

[3] = Trans-corneal permeability in vitro across excised rabbit corneas (Franz chamber); assay type: in vitro ADME; conditions: excised rabbit cornea, compound in PBS, 37° C., four hours
Procedure: In this example, trans-corneal permeability of compounds are measured in-vitro across excised rabbit corneas. Excised rabbit cornea are acquired from Pel-Freez and delivered in DMEM culture media on ice overnight. The test apparatus is a curved 9 mm Franz chamber (Permegear) suitable for rabbit eyes. Test compound is prepared in PBS buffer. The compound solution is added to the donor chamber of the Franz chamber and the entire apparatus placed in an incubator at 37° C. for four hours. During incubation and at every subsequent hour, a sample is removed from the receiver chamber and analyzed by HPLC (Shimadzu Prominence) using a C18 column (Phenomenex 00E-4605-E0) in reverse phase with acetonitrile in water. The apparent permeability coefficient Papp (cm/s) is calculated as
where dM/dt is the flux (nmol/s) across the cell layers or cornea, A is the exposed surface area (cm^2) of the insert membrane of rabbit cornea, and C0 is the initial drug concentration (μM) in the donor compartment.

[4] = biological target: Human thrombin (Homo sapiens (Human), UniProt P00734); experiment: Thrombin protease activity inhibition assay (chromogenic substrate S-2238); assay type: biochemical; conditions: 3 nM thrombin, 125 μM S-2238, 10 min pre-incubation, RT
Procedure, shortened: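 Thrombin at 3 nM final in 0.05 M Tris pH 7.4, 0.015 M NaCl, 0.01% PEG-8000, at room temperature; compounds as ten-point three-fold dilutions.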

[5] = Pharmacokinetics in mice (i.v. and p.o.); assay type: in vivo, male CD-1 mice; conditions: male, CD-1, mouse, in vivo
Procedure: Each compound is administered intravenously (i.v.) as a single dose via tail vein or orally (p.o.) as a single dose via gastric gavage to male CD-1 mice of nominal weights between 20 g and 26 g. Nominal doses are 1 mg/kg and 5 mg/kg for i.v. and p.o., respectively. In some examples (dose type A), both p.o. and i.v. doses are prepared by dissolving the test compound in 5% dimethyl acetamide and diluted in tetraethylene glycol for a final concentration of 0.25 mg/mL. In other examples (dose type B), i.v. doses are prepared by dissolving test compounds in 20% dimethyl acetamide, 40% polyethylene glycol 300 and 40% phosphate buffered saline, and p.o. doses are prepared by dissolving test compounds in carboxymethyl cellulose suspension (1% by weight) in water and 2.5% dimethyl acetamide.
Animals are housed in standard holding cages with food and water available ad libitum except for animals used for p.o. dosing which are fasted overnight prior to dosing. Samples are taken in triplicate via cardiac puncture at times prior to dosing and at 0.083 (i.v. only), 0.25, 0.5, 1, 2, 4, 8, and 24 hours after administration. Plasma is obtained by centrifuge and stored frozen until analyzed by LC-MS/MS using a Shimadzu VP System HPLC coupled to a Applied Biosystems MDS SCIEX API 3000 triple quadrapole MS. Assay results are calibrated using reference samples prepared in a range between 1.5 and 5000 ng/mL.
Pharmacokinetic parameters are calculated from mean concentration values using a non-compartmental analysis as described in the following and as apparent to those of ordinary skill in the art. Half-lives (t1/2) and elimination rate constants (λ) are determined by log linear regression using equal weighting on the last three finite sample time points. Concentration at time zero (C0) for the i.v. data is established by the extrapolation of log linear regression using equal weighting on the first three sample time points. Area under the curve (AUC) values are calculated using linear trapezoidal integration. Systemic clearance (CL) is calculated as the ratio of dosage and AUC. […] Percent oral bioavailability (% F) is determined from the ratio of i.v. and p.o. AUC values weighted by dosage.

[6] = system: malignant breast tumors; conditions: treated mice, cited from earlier work

Chain of Human KLKB1 (P03952 391-638 limits assumed): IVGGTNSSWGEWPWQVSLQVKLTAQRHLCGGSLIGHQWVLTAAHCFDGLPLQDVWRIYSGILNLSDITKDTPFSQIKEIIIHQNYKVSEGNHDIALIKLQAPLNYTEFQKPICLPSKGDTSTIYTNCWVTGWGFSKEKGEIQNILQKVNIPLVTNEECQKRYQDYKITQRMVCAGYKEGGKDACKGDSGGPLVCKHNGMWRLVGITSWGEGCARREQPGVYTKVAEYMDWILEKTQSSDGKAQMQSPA
Chain of Human KLKB1 (P03952 20-390 partner limits assumed): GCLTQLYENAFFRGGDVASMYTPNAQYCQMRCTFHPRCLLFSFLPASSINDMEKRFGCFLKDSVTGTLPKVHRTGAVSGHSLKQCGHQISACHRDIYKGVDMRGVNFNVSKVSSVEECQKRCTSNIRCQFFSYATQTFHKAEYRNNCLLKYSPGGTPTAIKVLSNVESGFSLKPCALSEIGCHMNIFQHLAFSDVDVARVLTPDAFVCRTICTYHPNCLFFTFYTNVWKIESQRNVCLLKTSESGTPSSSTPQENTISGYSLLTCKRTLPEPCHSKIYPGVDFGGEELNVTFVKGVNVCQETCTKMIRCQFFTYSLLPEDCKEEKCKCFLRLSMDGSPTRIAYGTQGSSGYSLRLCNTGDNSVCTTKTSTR
Chain of Recombinant human tissue kallikrein (KLK1) (P06870 25-262): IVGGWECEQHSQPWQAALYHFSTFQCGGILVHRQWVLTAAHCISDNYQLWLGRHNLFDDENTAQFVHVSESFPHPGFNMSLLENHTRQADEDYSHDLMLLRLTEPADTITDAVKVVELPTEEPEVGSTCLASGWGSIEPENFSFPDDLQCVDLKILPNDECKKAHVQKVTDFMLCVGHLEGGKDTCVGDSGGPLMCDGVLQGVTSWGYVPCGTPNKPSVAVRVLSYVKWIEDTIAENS

Row | IC50 ([1]; Table C) | IC50 ([2]; Table C) | Papp at 4 h [3] | IC50 [4] | IC50 ([1]; Table B) | IC50 ([2]; Table B) | AUC ([5]; iv, 1 mg/kg) | C0 ([5]; iv, 1 mg/kg) | Vd ([5]; iv, 1 mg/kg) | clearance ([5]; iv, 1 mg/kg) | half-life ([5]; iv, 1 mg/kg) | AUC ([5]; po, 5 mg/kg) | bioavailability ([5]; po, 5 mg/kg) | half-life ([5]; po, 5 mg/kg) | SMILES | reduction in tumor volume ([6]; at 4 weeks) | reduced tumor cells in the blood and liver micrometastases [6]
1 | < 0.1 µM | 10 to 100 µM | 5.7 ×10⁻⁶ cm/s |  |  |  |  |  |  |  |  |  |  |  | COc1ccccc1C(=O)n1nc(-c2ccccn2)nc1NCc1ccc(Cl)s1 [Cmpd 22] |  | 
2 |  |  |  | > 100 µM | 1 to 10 µM | > 100 µM |  |  |  |  |  |  |  |  | COCCn1cccc(-c2cc(NCc3ccc(Cl)s3)n(C(=O)C3(C)CCOCC3)n2)c1=O [Cmpd 149, 3-(5-[(5-chlorothiophen-2-yl)methyl]amino-1-[(4-methyloxan-4-yl)carbonyl]-1H-pyrazol-3-yl)-1-(2-methoxyethyl)-1,2-dihydropyridin-2-one] |  | 
3 |  |  |  | 10 to 100 µM | 1 to 10 µM | > 100 µM |  |  |  |  |  |  |  |  | O=C(O)Cn1cccc(-c2cc(NCc3ccc(Cl)s3)[nH]n2)c1=O [Cmpd 59, 2-[3-(5-[(5-chlorothiophen-2-yl)methyl]amino-1H-pyrazol-3-yl)-2-oxo-1,2-dihydropyridin-1-yl]acetic acid] |  | 

Further lines, the molecule ahead of its results:

Row | SMILES | IC50 ([1]; Table C) | IC50 ([2]; Table C) | Papp at 4 h [3] | IC50 [4] | IC50 ([1]; Table B) | IC50 ([2]; Table B) | AUC ([5]; iv, 1 mg/kg) | C0 ([5]; iv, 1 mg/kg) | Vd ([5]; iv, 1 mg/kg) | clearance ([5]; iv, 1 mg/kg) | half-life ([5]; iv, 1 mg/kg) | AUC ([5]; po, 5 mg/kg) | bioavailability ([5]; po, 5 mg/kg) | half-life ([5]; po, 5 mg/kg) | reduction in tumor volume ([6]; at 4 weeks) | reduced tumor cells in the blood and liver micrometastases [6]
4 | Cn1cccc(-c2cc(NCc3ccc(Cl)s3)n(C(=O)c3ccoc3)n2)c1=O [Cmpd 23, 3-(5-[(5-chlorothiophen-2-yl)methyl]amino-1-[(furan-3-yl)carbonyl]-1H-pyrazol-3-yl)-1-methyl-1,2-dihydropyridin-2-one] |  |  |  | < 0.1 µM | 1 to 10 µM | 10 to 100 µM | 100 ng·h/mL | 400 ng/mL | 5 L/kg | 133 mL/min/kg | 30 min | 80 ng·h/mL | 10% | 36 min |  | 
5 | O=C(c1ccoc1)n1nc(-c2cccn(Cc3ccccn3)c2=O)cc1NCc1ccc(Cl)s1 [Cmpd 25, 3-(5-[(5-chlorothiophen-2-yl)methyl]amino-1-[(furan-3-yl)carbonyl]-1H-pyrazol-3-yl)-1-(pyridin-2-ylmethyl)-1,2-dihydropyridin-2-one] |  |  |  | < 0.1 µM | 0.1 to 1 µM | 10 to 100 µM | 40 ng·h/mL | 100 ng/mL | 6 L/kg | 167 mL/min/kg | 18 min | 10 ng·h/mL | 9% | > 18 min |  | 
6 | O=C(c1ccoc1)n1nc(-c2ccc[nH]c2=O)cc1NCc1ccc(Cl)s1 [Cmpd 4, 3-(5-[(5-chlorothiophen-2-yl)methyl]amino-1-[(furan-3-yl)carbonyl]-1H-pyrazol-3-yl)-1,2-dihydropyridin-2-one] |  |  | 2.5 ×10⁻⁶ cm/s |  | 1 to 10 µM | 10 to 100 µM | 100 ng·h/mL | 300 ng/mL | 10 L/kg | 167 mL/min/kg | 60 min | 300 ng·h/mL | 60% | 360 min |  | 
7 | CCCCCCOC(=O)N=C(N)c1ccc(NCc2nc3cc(C(=O)N(CCC(=O)OCC)c4ccccn4)ccc3n2C)cc1 [dabigatran etexilate] |  |  |  |  |  |  |  |  |  |  |  |  |  |  | 50% | 50-60%
8 | O=C(c1ccoc1)n1nc(-c2cccn(Cc3ccco3)c2=O)cc1NCc1ccc(Cl)s1 [Cmpd 26, 3-(5-[(5-chlorothiophen-2-yl)methyl]amino-1-[(furan-3-yl)carbonyl]-1H-pyrazol-3-yl)-1-(furan-2-ylmethyl)-1,2-dihydropyridin-2-one] |  |  |  | < 0.1 µM | 1 to 10 µM | 10 to 100 µM | 50 ng·h/mL | 200 ng/mL | 5 L/kg | 167 mL/min/kg | 18 min | 20 ng·h/mL | 8% | > 18 min |  | 

— patent US9687479B2, “Multisubstituted aromatic compounds as serine protease inhibitors” (VERSEON CORPORATION, priority 2013, dated 2017)
